From PMC10367131 (ACS Synthetic Biology, 2023)
Values belong to the molecule of their own block, whether it stands above or below them.

Tests used:
VgGR/RXR = molecular target: T1, VgGR/RXR (Homo sapiens, UniProt P04150+P19793, F602S); experiment: VgGR/RXR luciferase reporter co-transfection assay in HEK293 cells; type: cell-based
T1 sequence (P04150 523-777 F602S limits assumed): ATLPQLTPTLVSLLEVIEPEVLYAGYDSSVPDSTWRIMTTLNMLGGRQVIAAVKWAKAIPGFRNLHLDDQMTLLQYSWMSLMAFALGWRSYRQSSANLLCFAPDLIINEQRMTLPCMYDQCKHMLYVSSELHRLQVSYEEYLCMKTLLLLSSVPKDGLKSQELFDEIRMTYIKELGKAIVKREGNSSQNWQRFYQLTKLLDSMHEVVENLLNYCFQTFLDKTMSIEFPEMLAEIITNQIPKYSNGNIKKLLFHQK
T1 sequence (P19793 1-462): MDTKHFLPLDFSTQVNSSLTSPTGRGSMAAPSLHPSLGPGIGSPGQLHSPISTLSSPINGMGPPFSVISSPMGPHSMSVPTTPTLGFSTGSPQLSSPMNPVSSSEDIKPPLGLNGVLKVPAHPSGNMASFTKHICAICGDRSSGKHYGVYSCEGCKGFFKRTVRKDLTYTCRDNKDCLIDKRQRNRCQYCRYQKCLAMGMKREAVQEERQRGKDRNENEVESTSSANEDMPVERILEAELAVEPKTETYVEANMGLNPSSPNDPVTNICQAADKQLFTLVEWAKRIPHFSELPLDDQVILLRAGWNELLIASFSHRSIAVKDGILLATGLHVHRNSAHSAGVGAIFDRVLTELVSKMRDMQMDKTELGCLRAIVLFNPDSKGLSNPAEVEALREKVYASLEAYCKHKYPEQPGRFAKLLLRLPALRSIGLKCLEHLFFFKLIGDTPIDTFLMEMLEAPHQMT

VgEcR/RXR = experiment: Original VgEcR/RXR luciferase reporter co-transfection assay in HEK293 cells; type: cell-based, human; settings: ligand alone at 1 µM or 10 µM, HEK293, 20 h

Effect of increasing antagonist concentration on DEX-activated output (VgGR/RXR): reduction of output levels | Effect on reporter expression in the absence of DEX (VgGR/RXR): increase in reporter expression
Structure (SMILES): CC#C[C@]1(O)CC[C@H]2[C@@H]3CCC4=CC(=O)CCC4=C3[C@@H](c3ccc(N(C)C)cc3)C[C@@]21C [RU-486, mifepristone]

Structure (SMILES): C[C@]12C=CC(=O)C=C1CC[C@@H]1[C@@H]2[C@@H](O)C[C@@]2(C)[C@H]1CC[C@]2(O)C(=O)CO [PRED, prednisolone]
Response of original VgEcR/RXR reporter expression to ligand (VgEcR/RXR): did not respond

Response of VgGR/RXR reporter expression to ligand (VgGR/RXR; ligand alone, HEK293, 20 h): did not respond
Structure (SMILES): CC(C)CC[C@@H](O)[C@](C)(O)[C@H]1CC[C@@]2(O)C3=CC(=O)[C@@H]4C[C@@H](O)[C@@H](O)C[C@]4(C)[C@H]3CC[C@]12C [PonA, ponasterone A]

Maximal activation of reporter expression by ligand alone (VgGR/RXR): around one order of magnitude
Structure (SMILES): C[C@@H]1C[C@H]2[C@@H]3CCC4=CC(=O)C=C[C@]4(C)[C@@]3(F)[C@@H](O)C[C@]2(C)[C@@]1(O)C(=O)CO [DEX, dexamethasone]
Response of original VgEcR/RXR reporter expression to ligand (VgEcR/RXR): did not respond
